The values that follow come from ChEMBL document CHEMBL1148615, “3-Amino-1,4,5,6-tetrahydropyrrolo[3,4-c]pyrazoles: a new class of CDK2 inhibitors” (Bioorg Med Chem Lett, 2006).

One data set has as its target T1, Aurora kinase A (Homo sapiens, UniProt O14965).
T1 sequence (O14965 whole entry): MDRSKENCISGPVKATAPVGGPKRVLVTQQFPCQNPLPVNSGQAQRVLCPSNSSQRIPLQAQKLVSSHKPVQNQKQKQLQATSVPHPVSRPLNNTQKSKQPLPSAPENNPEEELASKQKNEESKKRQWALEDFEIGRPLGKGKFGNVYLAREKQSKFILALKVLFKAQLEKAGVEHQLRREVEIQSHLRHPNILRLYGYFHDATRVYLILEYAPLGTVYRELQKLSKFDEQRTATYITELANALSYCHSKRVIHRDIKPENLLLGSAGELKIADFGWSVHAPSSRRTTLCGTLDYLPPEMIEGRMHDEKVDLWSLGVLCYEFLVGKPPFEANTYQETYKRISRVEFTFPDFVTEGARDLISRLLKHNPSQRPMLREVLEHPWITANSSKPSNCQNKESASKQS
Description: Inhibitory activity against Aurora A kinase.

Data set [1] concerns the target Cyclin-dependent kinase 2/cyclin A (Homo sapiens, UniProt P24941). As to the kind of experiment: Inhibitory activity against CDK2/Cyclin A. Format: protein-complex assay.
Data set [2] concerns the target Cyclin-dependent kinase 1/cyclin B (Homo sapiens, UniProt P06493). As to the kind of experiment: Inhibitory activity against CDK1/Cyclin B. It is filed as protein-complex assay.
The target of data set [3] is Cyclin-dependent kinase 2/cyclin E (Homo sapiens, UniProt P24941). As to the kind of experiment: Inhibitory activity against CDK2/Cyclin E. It is filed as protein-complex assay.
Data set [4] has as its system HT-29. As to the kind of experiment: Incorporation of BrdU in HT29 cells. Format: functional, cell-based. The settings on record: Homo sapiens.
In another data set the target is Cytochrome P450 3A4 (Homo sapiens, UniProt P08684). As to the kind of experiment: Metabolic stability in presence of CYP3A4. Format: ADME.
Chain of Cytochrome P450 3A4 (P08684 whole entry): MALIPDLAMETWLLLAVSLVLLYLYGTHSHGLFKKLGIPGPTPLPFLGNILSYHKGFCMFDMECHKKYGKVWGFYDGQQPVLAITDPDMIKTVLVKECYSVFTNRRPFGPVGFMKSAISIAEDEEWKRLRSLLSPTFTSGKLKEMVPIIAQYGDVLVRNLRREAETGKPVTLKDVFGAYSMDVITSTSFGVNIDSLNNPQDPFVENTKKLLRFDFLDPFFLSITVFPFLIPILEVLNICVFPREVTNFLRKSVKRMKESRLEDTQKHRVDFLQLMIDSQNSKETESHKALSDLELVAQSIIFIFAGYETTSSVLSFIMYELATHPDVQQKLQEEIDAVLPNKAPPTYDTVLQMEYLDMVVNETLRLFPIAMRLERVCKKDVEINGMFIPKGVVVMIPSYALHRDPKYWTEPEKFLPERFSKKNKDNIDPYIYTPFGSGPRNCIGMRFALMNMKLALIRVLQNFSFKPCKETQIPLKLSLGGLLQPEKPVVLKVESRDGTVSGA
The subject of another data set is HCT-116. As to the kind of experiment: Antiproliferative activity against HCT116 cells. Format: functional, cell-based. The settings on record: Homo sapiens.
The target in data set [5] is Cyclin-dependent kinase 4/cyclin D1 (Homo sapiens, UniProt P11802). As to the kind of experiment: Inhibitory activity against CDK4/Cyclin D1. It is filed as protein-complex assay.
Chain of Cyclin-dependent kinase 4/cyclin D1 (P11802 whole entry): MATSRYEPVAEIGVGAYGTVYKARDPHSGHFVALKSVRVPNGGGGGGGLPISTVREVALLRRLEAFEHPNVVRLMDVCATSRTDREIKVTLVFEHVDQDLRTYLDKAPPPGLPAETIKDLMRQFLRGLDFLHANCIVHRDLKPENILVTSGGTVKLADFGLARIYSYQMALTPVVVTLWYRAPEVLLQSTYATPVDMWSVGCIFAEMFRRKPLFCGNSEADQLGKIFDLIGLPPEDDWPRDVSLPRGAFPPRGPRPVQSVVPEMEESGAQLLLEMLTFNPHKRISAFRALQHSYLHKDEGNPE
Chain of Cyclin-dependent kinase 4/cyclin D1 (P24385 whole entry, further chain): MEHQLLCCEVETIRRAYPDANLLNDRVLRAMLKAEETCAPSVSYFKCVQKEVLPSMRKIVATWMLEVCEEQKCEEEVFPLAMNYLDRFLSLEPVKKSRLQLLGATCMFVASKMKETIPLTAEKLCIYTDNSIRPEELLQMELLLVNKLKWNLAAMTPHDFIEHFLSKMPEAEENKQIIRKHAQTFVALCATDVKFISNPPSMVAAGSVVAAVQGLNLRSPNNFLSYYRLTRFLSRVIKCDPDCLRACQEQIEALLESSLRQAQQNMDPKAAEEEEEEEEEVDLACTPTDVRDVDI
Data set [6] is described as follows: Solubility in buffer. Format: physicochemical.
In data set [7] the test system is HT-29. Description: Antiproliferative activity against HT29 cells. Format: functional, cell-based. Particulars: Homo sapiens.
Data set [8] can be described thus: Plasma protein binding. Format: ADME, cell-free. Particulars: human, read-out: PPB (converted).
Data set [9] has as its target T2, Cyclin-dependent kinase 2/cyclin A (Homo sapiens) (UniProt P24941+P20248+P78396). As to the kind of experiment: Inhibition of hyperphosphorylation of pRb by CDK2/cyclin A at 3 uM. Format: functional.
For the next data set, the system named is A2780. Description: Antiproliferative activity against A2780 cells. Particulars: Homo sapiens. It is filed as functional, cell-based.
Data set [10] concerns the target Mitogen-activated protein kinase 1 (Homo sapiens, UniProt P28482). As to the kind of experiment: Inhibitory activity against p42MAPK.
For data set [11], the target named is Cyclin-dependent kinase 5/CDK5 activator 1 (Homo sapiens, UniProt Q00535). As to the kind of experiment: Inhibitory activity against CDK5/p25. It is filed as protein-complex assay.
Chain of Cyclin-dependent kinase 5/CDK5 activator 1 (Q00535 whole entry): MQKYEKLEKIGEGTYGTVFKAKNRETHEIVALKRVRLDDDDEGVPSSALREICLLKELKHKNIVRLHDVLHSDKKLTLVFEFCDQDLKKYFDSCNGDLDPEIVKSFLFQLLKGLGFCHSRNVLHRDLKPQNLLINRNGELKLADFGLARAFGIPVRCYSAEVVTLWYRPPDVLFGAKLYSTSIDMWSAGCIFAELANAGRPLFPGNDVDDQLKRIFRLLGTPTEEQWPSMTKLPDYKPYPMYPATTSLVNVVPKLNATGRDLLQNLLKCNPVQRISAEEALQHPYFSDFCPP
Chain of Cyclin-dependent kinase 5/CDK5 activator 1 (Q15078 whole entry, further chain): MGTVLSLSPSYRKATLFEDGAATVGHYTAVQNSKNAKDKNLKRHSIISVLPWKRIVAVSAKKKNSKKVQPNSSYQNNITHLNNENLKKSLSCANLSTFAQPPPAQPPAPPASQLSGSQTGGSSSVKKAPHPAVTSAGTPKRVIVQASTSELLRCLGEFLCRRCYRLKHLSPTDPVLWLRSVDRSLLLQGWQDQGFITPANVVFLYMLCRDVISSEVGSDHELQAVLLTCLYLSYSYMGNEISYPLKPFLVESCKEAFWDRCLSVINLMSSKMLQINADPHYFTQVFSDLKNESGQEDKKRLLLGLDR
For data set [12], the system named is HT-29. Description: Cell cycle arrest in HT29 cells by accumulation at G1/S phase. Format: functional, cell-based. Particulars: Homo sapiens.
The target of data set [13] is Glycogen synthase kinase-3 beta (Homo sapiens, UniProt P49841). Description: Inhibitory activity against GSK3-beta.
Chain of Glycogen synthase kinase-3 beta (P49841 whole entry): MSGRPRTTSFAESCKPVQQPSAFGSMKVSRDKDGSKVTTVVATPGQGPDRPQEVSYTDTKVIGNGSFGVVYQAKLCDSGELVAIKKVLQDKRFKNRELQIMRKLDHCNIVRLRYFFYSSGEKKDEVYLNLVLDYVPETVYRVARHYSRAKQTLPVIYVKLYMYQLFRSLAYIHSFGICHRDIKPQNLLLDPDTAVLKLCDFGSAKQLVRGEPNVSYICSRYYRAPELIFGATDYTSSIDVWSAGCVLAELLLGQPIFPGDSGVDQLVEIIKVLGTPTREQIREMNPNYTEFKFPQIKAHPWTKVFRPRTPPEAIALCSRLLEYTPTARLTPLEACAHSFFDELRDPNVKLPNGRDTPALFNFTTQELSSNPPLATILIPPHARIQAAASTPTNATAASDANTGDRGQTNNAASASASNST
In data set [14] the target is T2, Cyclin-dependent kinase 2/cyclin A (Homo sapiens). Description: Inhibition of hyperphosphorylation of pRb by CDK2/cyclin A at 1 uM. It is filed as functional.

In brackets after ≈: the same amount, converted by molar mass. Activity calls are given as the source filed them. No cut-off for these calls is given here.

Chain of Mitogen-activated protein kinase 1 (P28482 whole entry): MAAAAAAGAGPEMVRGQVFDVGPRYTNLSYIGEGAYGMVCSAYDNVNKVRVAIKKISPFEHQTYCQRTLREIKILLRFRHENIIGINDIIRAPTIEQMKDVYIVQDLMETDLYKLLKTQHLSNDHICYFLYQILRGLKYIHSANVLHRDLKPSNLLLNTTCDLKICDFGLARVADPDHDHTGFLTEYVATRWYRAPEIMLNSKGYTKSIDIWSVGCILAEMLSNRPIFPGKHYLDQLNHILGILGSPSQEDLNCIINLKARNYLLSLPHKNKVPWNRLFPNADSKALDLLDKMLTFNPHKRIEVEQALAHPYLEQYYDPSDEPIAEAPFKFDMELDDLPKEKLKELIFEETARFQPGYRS

As a reminder, the IC50 is the concentration at which inhibition is half-maximal. A lower IC50 goes with higher potency. For the compound `CC(=O)N1Cc2n[nH]c(NC(=O)c3ccc(C#N)cc3)c2C1`, the half-inhibitory concentration (IC50) is 8500 nM against Aurora kinase A and 1590 nM in data set [1].
On the same counts, the results for `CC(=O)N1Cc2n[nH]c(NC(=O)c3cccc(F)c3)c2C1` are 4850 nM and 2110 nM.
On the same counts, the results for `CCCCNC(=O)N1Cc2n[nH]c(NC(=O)Cc3ccccc3F)c2C1` are greater than 10000 nM and 51 nM.
On the same counts, the results for `CC(=O)N1Cc2n[nH]c(NC(=O)Cc3ccccc3)c2C1` are 2310 nM and 440 nM.
`CC(=O)N1Cc2n[nH]c(NC(=O)c3ccccc3)c2C1`: the IC50 on Aurora kinase A amounted to 3110 nM; in data set [1], 1150 nM.
By solubility is commonly meant the concentration that dissolves in the medium under given conditions. For `CCCCNC(=O)N1Cc2n[nH]c(NC(=O)[C@@H](C)c3ccc4ccccc4c3)c2C1`, the half-inhibitory concentration (IC50) against Aurora kinase A is greater than 10000 nM; in data set [2] it was 750 nM; in data set [3], 90 nM; in the data set on HCT-116 it was 120 nM; in [5] it was greater than 10000 nM; in the data set on HT-29 [7], 70 nM. The half-maximal inhibitory concentration (IC50) is 130 nM in the data set on A2780; 380 nM in [10]; 150 nM in [11]; 36 nM in data set [1]; 50 nM in [13]. The outcome in the data set on HT-29 [4] was inactive. The Stability at Cytochrome P450 3A4 stood at 20%. Moreover, the concentration in solution in data set [6] (solubility) was 27 µM (≈ 10.9 µg/mL). In addition, in [8], the fraction unbound was 0.01. In addition, the result (in data set [9]; in the data set with HT-29 [12]) was Active.
For the compound `O=C(Cc1ccccc1)Nc1[nH]nc2c1CN(C(=O)Nc1ccccc1)C2`, the values for the 50% inhibitory concentration (IC50) (on Aurora kinase A; in data set [1]) were greater than 10000 nM and 730 nM, respectively.
The corresponding values for `NC(=O)N1Cc2n[nH]c(NC(=O)Cc3ccccc3)c2C1` are greater than 10000 nM and 30 nM.
Take `CCCCNC(=O)N1Cc2n[nH]c(NC(=O)Cc3ccc4ccccc4c3)c2C1`: the results for the IC50 (at Aurora kinase A; in the data set with A2780; in [1]) were greater than 10000 nM, 540 nM and 45 nM, respectively.
For `CC(=O)N1Cc2n[nH]c(NC(=O)c3ccc4c(c3)OCO4)c2C1`, the values for the half-maximal inhibitory concentration (IC50) (at Aurora kinase A; in data set [1]) were greater than 10000 nM and 2760 nM, respectively.
Regarding `CCCCNC(=O)N1Cc2n[nH]c(NC(=O)Cc3ccc(N4CCCC4)cc3)c2C1`, the outcome (in [14]; in the data set with HT-29 [12]) was Active. The concentration for half-maximal inhibition (IC50) was 4200 nM on Aurora kinase A; 400 nM in data set [2]; 91 nM in [3]; 900 nM with HCT-116; greater than 10000 nM in data set [5]; 200 nM in the data set with HT-29 [7]. The IC50 is 940 nM in the data set on A2780, 280 nM in data set [10], 33 nM in data set [1] and 300 nM in data set [13]. The outcome in the data set on HT-29 [4] was inactive. Also, the Stability on Cytochrome P450 3A4 was 100%. For the same compound, in data set [6], the solubility came out at 39 µM (≈ 16 µg/mL). Moreover, in data set [8], the fraction unbound was 0.05.
For `COc1ccc(C(=O)Nc2[nH]nc3c2CN(C(C)=O)C3)cc1`, the IC50 on Aurora kinase A stood at 660 nM; in data set [1], 1370 nM.
The corresponding values for `CC(=O)N1Cc2n[nH]c(NC(=O)c3ccc(F)cc3)c2C1` are greater than 10000 nM and 2540 nM.
The corresponding values for `Cc1ccc(C(=O)Nc2[nH]nc3c2CN(C(=O)c2cccc4cccnc24)C3)cc1` are 440 nM and 1050 nM.
On the same counts, the results for `CC(C)NC(=O)N1Cc2n[nH]c(NC(=O)c3ccc4c(c3)OCO4)c2C1` are 390 nM and 120 nM.
In the case of `CC(C)C(=O)N1Cc2n[nH]c(NC(=O)c3ccc4c(c3)OCO4)c2C1`, the IC50 at Aurora kinase A amounted to 160 nM; in data set [1] it was 430 nM.
The corresponding values for `CC(=O)N1Cc2n[nH]c(NC(=O)c3ccc(C)cc3)c2C1` are 2140 nM and 1080 nM.
As to `CCCCNC(=O)N1Cc2n[nH]c(NC(=O)Cc3ccc(N4CCCC4=O)cc3)c2C1`, the half-inhibitory concentration (IC50) against Aurora kinase A was greater than 10000 nM; with A2780 it was 8270 nM; in data set [1], 51 nM.
